Measurements from patent US20070166710A1, “Methods for inhibiting adipogenesis and for treating type 2 diabetes” (priority 2003, published 2007).

Tests used:
Fxr = Fxr expression in primary adipocytes of lean mice cultured with insulin; format: cell-based; conditions: insulin 50 nM, 60 hours
Shp = Shp expression in primary adipocytes of lean mice cultured with insulin; format: cell-based; conditions: insulin 50 nM, 60 hours
Foxa-1, 2 and 3 = experiment: Expression levels of Foxa-1, 2 and 3 in primary hepatocytes (RT-PCR); format: cell-based; conditions: insulin-treated cells
Foxa-2 expression [1] = experiment: Foxa-2 gene expression in stromal vascular cells (preadipocytes) of lean and obese mice; format: cell-based; conditions: 100 nM insulin, 24 and 60 hours
Description: Gene expression was analyzed in a vasculo-stromal fraction (containing preadipocytes) of wildtype and ob/ob mice that were cultured in the absence (−) or presence of 100 nM insulin for 24 and 60 hours.
Stromal vascular cells from ob/ob mice are known to have increased cell replication in vitro and accumulate little triglycerides when cultured in differentiation medium containing insulin compared to lean control animals (Black et al (1995) J. Cell. Biochem 58:455-463). […] To test if the resistance to differentiation of obese preadipocytes may be mediated by Foxa-2, stromal vascular cells of lean and obese mice were isolated. cultured in the presence or absence of insulin, and gene expression of Foxa-2 and Pref-1 was measured. The mPNA levels were markedly higher in stromal vascular cells of ob/ob mice compared to lean littennates. […] However, Foxa-2 induction in ob/ob preadipocytes was profoundly higher compared to wildtype cells. Furthermore, Foxa-2 expression correlated with induction of Pref-1 gene expression.

Foxa-2 expression [2] = experiment: Foxa-2 expression in primary adipocytes from lean wildtype C57B6 mice, semiquantitative RT-PCR; format: cell-based; conditions: insulin 100 nM, 60 hours
Description: Total RNA was extracted from cells and EBs using Trizol following manufacturer's instructions (Life Technologies, Inc.). […] The cDNAs provided templates for polymerase chain reactions (PCRs) using specific primers at annealing temperatures ranging between 60 and 65° C. in the presence of dNTPs, [α^-32P]dCTP, and Taq DNA polymerase. […] Primary adipocytes were isolated as described by Rodbell (1964) J. Biol. Chem. 239:375-380. […] (1995) J. Cell. Biochem. 58:435-463. The reaction was stopped by spinning through dinonyl […] oil and the radioactivity quantified by scintillation counting. […] (1995) Am. J. Physiol. 268:[…]-[…]. Fatty acid de novo synthesis was analyzed by saponification of total lipids as described by […] et al. (1978) J. […] Incorporation into lipid glycerol was calculated by subtracting fatty acid radioactive label from total lipid radioactive label. Primary adipocytes were isolated from lean wildtype C57B6 mice and cultured in MEM medium (control) or in the presence of insulin (100 nM; 24 hours and 60 hours, respectively) or rosiglitazone (50 μM), WY14,643 (100 μM), dexametason (1 μM), leptin (100 ng/ml), TNF-α (5 ng/ml), adiponectin (500 ng/ml) and glucagons (100 nM) for 60 hours. Gene expression was measured by semiquantitative RT-PCR. Steady state mRNA levels of Hprt were used as a control and indicate that each lane contains similar amounts of mRNA. Reactions were also assayed in the absence of reverse transcriptase, showing that mRNA was not contaminated with genomic DNA.

Foxa-2 = experiment: Intracellular localization of Foxa-2 in hepatocytes after insulin injection into the portal vein; format: in vivo, mice
Description: Cryosections of livers ([…]) were fixed for 15 min at RT with 4% paraformaldehyde. For immunofluorescent detection of Foxa-2 or HA-Foxa-2, fixed sections were incubated with either anti-Foxa-2 antibody (1:100) or anti-HA antibody (Convance) (1:1000) overnight at 4° C. After washing, sections were treated with secondary antibody linked to Alexa Fluor 488 (Molecular Probes). For nuclear counterstaining, TOPRO-3 dye (Molecular Probes) was used. Immunofluorescent staining was visualized using laser-scanning micrsocopy.
The role of Foxa-2 in the regulation of liver gene expression by nutritional status was examined by determining the intracellular localization of Foxa-2 in fasted and fed mice by Western blotting of Foxa-2 in liver nuclear extracts and by immunohistochemistry. In fed mice, nuclear Foxa-2 levels were low, whereas after an overnight fast Foxa-2 expression in liver nuclei increased ^˜4 to 5-fold (FIG. 15a). […] Strong Foxa-2 immunostaining was detected in hepatocyte nuclei of control (PBS) mice. […] Foxa-2 protein levels were measured in liver nuclei of C57/B6 mice that were perfused with a buffer containing a range of insulin concentrations that included fasting and postprandial insulin levels (0.2 and 4.0 ng/ml, respectively). […] Foxa-2 levels were determined by immunoblotting. […]

[3] = test system: endogenous Foxa-2 activity in HepG2 cells; experiment: Endogenous Foxa-2 activity in HepG2 cells transfected with reporter construct alone; format: cell-based
Description: Transfections and Transactivation assay. HepG2 cells were grown to 60-70% confluence in a 24-well dish and transfected with 50 ng of each reporter gene (p6xCdx-TkLuc or pPEPCK-Luc), pCMV-β-Gal as internal reference and the expression vectors for wildtype or mutant Foxa-1 and Foxa-2 and human Akt1/Akt2 using the transfection reagent Fugene6 (Roche). Cells were grown for 48 hours and luciferase activity was measured using the Luciferase Detection System (Promega). Luciferase was normalized for transfection efficiency by β-galactosidase activity. […] To determine whether insulin decreases endogenous Foxa-2 activity in HepG2 cells, cells were transfected with the reporter construct alone and Foxa-2 activity was measured after stimulation with insulin and PI3-kinase or MAPKK1 inhibitors. […] This decrease in activity was ablated when cells were coincubated with Ly294002 but not with PD98059 (FIG. 10b).

## insulin: Insulin was from Sigma; hormone used as stimulus
Fxr
  Fxr expression: induced
Shp
  Expression of Shp: induced
Foxa-1, 2 and 3
  expression levels of Foxa-1, 2 and 3: did not significantly change
Foxa-2 expression [1]
  expression of Foxa-2: markedly increased
Foxa-2 expression [2]
  Foxa-2 expression: strong induction
Foxa-2; 20 ng/ml insulin into the portal vein of fasted mice, after 5 minutes
  nuclei from which Foxa-2 was excluded: ~80%
Foxa-2; 15 minutes after insulin administration
  localization of Foxa-2 in hepatocytes: located exclusively in the cytoplasm of all hepatocytes
[3]; 500 nM insulin
  decrease of Foxa-2 activity: 80%
[3]; insulin stimulation
  Foxa-2 activity, dose dependence: dose-dependent decrease
